Source: patent US20210299282A1, “Device for Collecting and Culturing Fish Embryos and Method for Evaluating Combined Toxicity of Thiamethoxam and Tetraconazole” (priority 2020, published 2021)
Values after ≈ are worked out from the molar mass of the structure shown.

Assays:
[1] = Toxicity test for single pesticide on zebrafish embryos (96 h semi-static exposure); type: in vivo, Zebrafish (Danio rerio); settings: zebrafish, in vivo; after 96 hours of exposure; single pesticide; embryos exposed from 3 hpf; read-out: LC50 and 95% confidence limits for zebrafish embryos when used alone
Experimental: (§1) S1: The embryo culture component 3 is assembled; toxicity exposure is performed after 3 hours post-fertilization (3 hpf) of embryos; after collecting the zebrafish embryos for 3 hours, the abnormal and dead embryos are removed, and the normally divided embryos are picked out under an inverted microscope, and the selected embryos are loaded in into the culture well 34 in an amount of 10 embryos per well; after removing the water as much as possible, 10 mL of single pesticide solution with different concentrations are added to each well in the treatment group separately, and an equal volume of standard dilution water is added to the blank control group and the solvent control group, respectively. Three replicates are set for each treatment group, blank control group and solvent control group, and every 2 wells are served as one replicate, that is, 20 embryos are one replicate. Each test pesticide is set with 5 to 7 concentrations using serial dilution method with a geometrical ratio, and each concentration is set with three repeats.
(§2) S2: The semi-static method is used, that is, the medium in the wells are replaced with fresh pesticide solution every 24 hours, and the dead embryos are picked out in time. When the medium is replaced with the fresh pesticide solution, the top plate 32 is pulled up, the original culture medium flows through the leakage hole 35 into the cavity of the cavity plate 31, and then the original culture medium is poured out together. Then, the top plate 32 is mounted on the cavity plate 31, and the fresh pesticide solution is added to the culture well 34 loaded with embryos.
(§3) S3: After 96 hours of toxicity exposure, the embryo mortality and poisoning symptoms are recorded. Embryo death was characterized by egg coagulation, somite disruption, non-detachment of tail or lack of heartbeat; common symptoms of embryo poisoning include the following deformities: egg coagulation, pericardial edema, yolk sac edema, spine curvature, tail bending, and others (FIG. 5). The mortality M is calculated according to the formula (I),
(§4) In formula (I), D is the number of dead embryos and N is the total number of embryos. DPS statistical analysis software (version number: V15.10) is used to statistically analyze the mortality data of zebrafish embryos with the probabilistic value analysis method, and the 50% lethal concentration LC50 and 95% confidence limits of the fish embryos are calculated.

zebrafish embryos = experiment: as above; type: in vivo, Zebrafish (Danio rerio); settings: single pesticide treatment group; 96 h exposure (tetraconazole: high concentration group)
Experimental: as §1, §2, §3, §4

Row | SMILES | LC50 at 96 h [1] [µg/mL] | poisoning symptoms of zebrafish embryos (zebrafish embryos)
1 | CN1COCN(Cc2cnc(Cl)s2)/C1=N\[N+](=O)[O-] [thiamethoxam] | 246 (≈ 844 µM) | not obvious
2 | FC(F)C(F)(F)OCC(Cn1cncn1)c1ccc(Cl)cc1Cl (stereo not shown) [tetraconazole] | 11 (≈ 29.5 µM) | pericardial edema, yolk sac edema, spine curvature, tail bending, and others were observed
